Measurements taken from patent publication US20240108602A1, “TREATMENT OF MENTAL DISORDERS” (GH Research Ireland Limited, priority 2022, published 2024).
“Also recorded” adds a separate entry of the source.

What was measured:
[1] = test system: human hepatocytes; test: Metabolite identification after incubation of 5-MeO-DMT with human hepatocytes; conditions: 5-MeO-DMT free base 10 μM, up to 120 minutes
Description: For incubations with cryopreserved hepatocytes, the 2 mM stock solution was diluted with Leibovitz L-15 medium to a concentration of 20 μM or 2 μM. An aliquot (250 μL) of the 20 μM and 2 μM test substance formulations was added to each hepatocyte incubation sample (250 μL), as appropriate, so that the final test substance concentration in the incubations was 10 μM or 1 μM, respectively, and incubations contained less than 1% (v/v) solvent.
Incubations were performed at ca. 37° C. in a shaking water bath (total incubation volume 0.5 mL). For 1 μM, incubations were terminated after 0, 5, 10, 20, 30, 60 and 120 minutes, by the addition of ice-cold acetonitrile (0.5 mL).
The samples were vortex mixed and centrifuged at ca 13,000 rpm for 10 minutes at room temperature. Following centrifugation, the protein-free supernatants were removed for analysis.
Blank control incubations were carried out with Leibovitz L-15 medium in place of the test substance. No cells control samples were performed with Leibovitz L-15 medium in place of hepatocytes. Aliquots of the blank control samples were taken at 120 minutes, while no cells control samples were taken at 0, 30 and 120 for 1 μM incubations and at 0 and 120 minutes for 10 μM incubations.
All 1 μM incubations were performed in duplicate, while all 10 μM incubations were performed in singlet. All samples were stored at −80° C. (nominal) prior to analysis.
Prior to sample analysis a 100 μL aliquot of each sample was evaporated to near dryness under a steady stream of nitrogen at room temperature, and subsequently reconstituted in 50 μL of mobile phase A (0.1% formic acid in water). Each sample (0, 30 and 120-minute, 10 μM) was analysed using accurate mass LC-MS to determine relative levels of parent compound at each time-point, and determine the profile of metabolites formed. Appropriate blank and control samples were also analysed. The 10 and 60-minute, 10 μM incubation samples were not analysed and were stored at −80° C. (nominal).
Data were interrogated for the presence of metabolites by comparison of retention times with the test substance reference standard and based on the accurate masses of potential metabolites using screening software (UNIFI version 1.9.4), and user defined search parameters. To confirm a suspected metabolite, the measured accurate mass of the peak detected in the sample used for structural elucidation had to be within 5 ppm of the theoretical mass in order to confirm the molecular formula.

[2] = test system: human hepatocytes; test: Metabolic stability in Hμrel human hepatocyte co-culture model
[3] = 5-MeO-DMT, 5-MIAA and bufotenine in urine, serum and breastmilk of a lactating PPD patient, LC-MS/MS
Description: The second patients was lactating, and, per the clinical trial protocol, breastmilk samples were collected pre-dosing and at multiple timepoints after administration of the last dose. […] Similar analyses were carried out on patient serum and urine samples.

[4] = test system: human plasma protein; test: Plasma binding of 5-MIAA (unbound fraction); type: in vitro ADME
Description: Binding to human plasma protein was determined. Reported are the unbound fraction (fu) for three replicates as well as the mean unbound fraction, the standard deviation and the mean % recovery (Table 8).

[5] = 1.0 hrs after last dose (6 mg then 12 mg 5-MeO-DMT)

SMILES: COc1ccc2[nH]cc(CC[N+](C)(C)[O-])c2c1 [5-MeO-DMT-N-oxide]
- Relative Proportion of compound after incubation of 5-MeO-DMT [1]: 1%

SMILES: COc1ccc2[nH]cc(CCO)c2c1 [5-methoxytryptophol, 5-Methoxyindole-3-ethanol]
- Relative Proportion of compound after incubation of 5-MeO-DMT [1]: 25%
- relative LC/MS peak area ([2]; 1 μM Stromal cells, 0 h): 100%
- relative LC/MS peak area ([2]; 1 μM Stromal cells, 4 h): 97%
- relative LC/MS peak area ([2]; 1 μM Stromal cells, 8 h): 107%
- relative LC/MS peak area ([2]; 1 μM Stromal cells, 24 h): 94%
- relative LC/MS peak area ([2]; 1 μM Stromal cells, 48 h): 102%
- relative LC/MS peak area ([2]; 1 μM Stromal cells, 72 h): 104%
- relative LC/MS peak area ([2]; 10 μM Stromal cells, 0 h): 100%
- relative LC/MS peak area ([2]; 10 μM Stromal cells, 4 h): 99%
- relative LC/MS peak area ([2]; 10 μM Stromal cells, 8 h): 105%
- relative LC/MS peak area ([2]; 10 μM Stromal cells, 24 h): 86%
- relative LC/MS peak area ([2]; 10 μM Stromal cells, 48 h): 98%
- relative LC/MS peak area ([2]; 10 μM Stromal cells, 72 h): 104%
- metabolic turnover ([2]; human hepatocytes): high metabolic turnover
- half-life ([2]; human hepatocytes, 1 μM): 2.37 h
- in vitro intrinsic clearance ([2]; human hepatocytes, 1 μM): 16.2 μl/min/million cells
- disappearance with stromal cell controls ([2]; stromal cell controls): no disappearance

SMILES: CN(C)CCc1c[nH]c2ccc(O)cc12 [Bufotenine]
- Relative Proportion of compound after incubation of 5-MeO-DMT [1]: 5%
- Breastmilk concentration [3, 5]: BLQ (BLQ: Below limit of quantification. The lower limit of quantification is 25 pg/ml for both 5-MeO-DMT and 5-MIAA in both serum and breastmilk; it is 25 pg/ml in urine for 5-MeO-DMT and 250 pg/ml for 5-MIAA in urine.)
- Serum concentration [3, 5]: BLQ (BLQ: Below limit of quantification. The lower limit of quantification is 25 pg/ml for both 5-MeO-DMT and 5-MIAA in both serum and breastmilk; it is 25 pg/ml in urine for 5-MeO-DMT and 250 pg/ml for 5-MIAA in urine.)
- Breastmilk concentration ([3]; 2.5 hrs after last dose): BLQ (BLQ: Below limit of quantification. The lower limit of quantification is 25 pg/ml for both 5-MeO-DMT and 5-MIAA in both serum and breastmilk; it is 25 pg/ml in urine for 5-MeO-DMT and 250 pg/ml for 5-MIAA in urine.)
- Serum concentration ([3]; 2.5 hrs after last dose): BLQ (BLQ: Below limit of quantification. The lower limit of quantification is 25 pg/ml for both 5-MeO-DMT and 5-MIAA in both serum and breastmilk; it is 25 pg/ml in urine for 5-MeO-DMT and 250 pg/ml for 5-MIAA in urine.)
- Urine concentration ([3]; 2.5 hrs after last dose): 32.3 pg/mL
- Breastmilk concentration ([3]; 8.5 hrs after last dose): BLQ (BLQ: Below limit of quantification. The lower limit of quantification is 25 pg/ml for both 5-MeO-DMT and 5-MIAA in both serum and breastmilk; it is 25 pg/ml in urine for 5-MeO-DMT and 250 pg/ml for 5-MIAA in urine.)
- Urine concentration ([3]; 8.5 hrs after last dose): BLQ (BLQ: Below limit of quantification. The lower limit of quantification is 25 pg/ml for both 5-MeO-DMT and 5-MIAA in both serum and breastmilk; it is 25 pg/ml in urine for 5-MeO-DMT and 250 pg/ml for 5-MIAA in urine.)
- Breastmilk concentration ([3]; 24.0 hrs after last dose): BLQ (BLQ: Below limit of quantification. The lower limit of quantification is 25 pg/ml for both 5-MeO-DMT and 5-MIAA in both serum and breastmilk; it is 25 pg/ml in urine for 5-MeO-DMT and 250 pg/ml for 5-MIAA in urine.)
- Serum concentration ([3]; 24.0 hrs after last dose): BLQ (BLQ: Below limit of quantification. The lower limit of quantification is 25 pg/ml for both 5-MeO-DMT and 5-MIAA in both serum and breastmilk; it is 25 pg/ml in urine for 5-MeO-DMT and 250 pg/ml for 5-MIAA in urine.)
- Urine concentration ([3]; 24.0 hrs after last dose): BLQ (BLQ: Below limit of quantification. The lower limit of quantification is 25 pg/ml for both 5-MeO-DMT and 5-MIAA in both serum and breastmilk; it is 25 pg/ml in urine for 5-MeO-DMT and 250 pg/ml for 5-MIAA in urine.)
- Breastmilk concentration ([3]; 120.0 hrs after last dose): BLQ (BLQ: Below limit of quantification. The lower limit of quantification is 25 pg/ml for both 5-MeO-DMT and 5-MIAA in both serum and breastmilk; it is 25 pg/ml in urine for 5-MeO-DMT and 250 pg/ml for 5-MIAA in urine.)
- Serum concentration ([3]; 120.0 hrs after last dose): BLQ (BLQ: Below limit of quantification. The lower limit of quantification is 25 pg/ml for both 5-MeO-DMT and 5-MIAA in both serum and breastmilk; it is 25 pg/ml in urine for 5-MeO-DMT and 250 pg/ml for 5-MIAA in urine.)
- Urine concentration ([3]; 120.0 hrs after last dose): BLQ (BLQ: Below limit of quantification. The lower limit of quantification is 25 pg/ml for both 5-MeO-DMT and 5-MIAA in both serum and breastmilk; it is 25 pg/ml in urine for 5-MeO-DMT and 250 pg/ml for 5-MIAA in urine.)
- detection in serum and breastmilk ([3]; any time point): absence of bufotenine; also recorded: not detected
- Breastmilk concentration ([3]; −24.0 hrs (pre-dosing)): BLQ (BLQ: Below limit of quantification. The lower limit of quantification is 25 pg/ml for both 5-MeO-DMT and 5-MIAA in both serum and breastmilk; it is 25 pg/ml in urine for 5-MeO-DMT and 250 pg/ml for 5-MIAA in urine.)
- Serum concentration ([3]; −24.0 hrs (pre-dosing)): BLQ (BLQ: Below limit of quantification. The lower limit of quantification is 25 pg/ml for both 5-MeO-DMT and 5-MIAA in both serum and breastmilk; it is 25 pg/ml in urine for 5-MeO-DMT and 250 pg/ml for 5-MIAA in urine.)
- Urine concentration ([3]; −24.0 hrs (pre-dosing)): BLQ (BLQ: Below limit of quantification. The lower limit of quantification is 25 pg/ml for both 5-MeO-DMT and 5-MIAA in both serum and breastmilk; it is 25 pg/ml in urine for 5-MeO-DMT and 250 pg/ml for 5-MIAA in urine.)

SMILES: CC(=O)CC(c1ccccc1)c1c(O)c2ccccc2oc1=O (centres unmarked) [Warfarin, reference compound]
- Mean % Recovery [4]: 78.1%
- Mean fu [4]: 0.0377
- unbound fraction (fu), Replicate 1 [4]: 0.0418
- unbound fraction (fu), Replicate 2 [4]: 0.0356
- unbound fraction (fu), Replicate 3 [4]: 0.0358
